Data on one compound can be found in patent publication US9296687B2, “Modulators of HSP70/DnaK function and methods of use thereof” (The Trustees of the University of Pennsylvania, priority 2008, dated 2016).

Holding throughout (type): cell-based, human
For assay [1], the system named is NF-κB. In words: NF-κB-dependent luciferase reporter in H1299 cells. The procedure:
FIG. 4. PES Interferes with HSP70 Actions. […] (B) IP-WB analyses of WCE from PES-treated U2OS osteosarcoma cells reveal a lower bundance of HSP70 complexes containing BAG-1M or APAF1. […] Note evidence of caspase cleavage in cisplatin-treated cells, but not in the presence of PES. […] (D) (left) H1299 cells were transfected with a NF-κB-dependent luciferase reporter. 24 h later, cells were either pretreated with DMSO or the indicated amount of PES for 1 h, followed by the addition of 20 ng/ml of TNFα for 5 h, as specified. Each graphical representation indicates the mean±SD of at least three independent cultures relative to control (DMSO-treated) cells. (right) H1299 cells were treated with 20 μM PES for 5.7 h, followed by treatment with 10 ng/ml TNFα for 20 min. WCE were immunoblotted for the proteins indicated.
On the technique in general: In a reporter assay the amount or activity of a reporter protein is the signal.

Assay [2] deals with FADU cells. In words: Sulforhodamine B colorimetric assay, PES plus cisplatin. Particulars: 0-100 μM, 1:1 ratio, 72 h. As to the method:
FIG. 20. PES and cisplatin act synergistically to kill cancer cells. […] Experiments were done in triplicate per condition.
Cells (2×10^4) were plated into 96 well plates in 200 μl media and allowed to attach overnight. Cells were then treated with the indicated doses of PES, cisplatin or PES+Cisplatin. After 72 hr incubation period, cells were washed in PBS and 100 μl of ice cold 10% TCA was added for 1 hr at 4° C. Plates were washed four times with slow-running tap water and air-dried at room temperature. 100 μl of 0.057% SRB solution was added to the cells and incubated for 30 min at room temperature. Fixed cells were quickly rinsed four times with 1% acetic acid to remove unbound dye. The protein-bound dye was solubilized using 200 μl of 10 mM Tris base solution (pH 10.5) per well, and the wells were spectrophotometrically quantified at an absorbance of 540 nm. This methodology is identical to that in Shekan et al, JNCI 82:1107 (1990).
On the technique in general: The SRB assay estimates cell density from bound dye.

The test system of assay [3] is FADU cells. Put plainly: Colony formation assay with gamma radiation. Particulars: PES 10 μM + 10 Gy. As to the method:
(§1) Fadu or Scc 61 (squamous cell carcinoma of the head and neck) cell lines were grown in DMEM supplemented with 10% fetal bovine serum and antibiotics. Cells were pre-treated with PES (10 μM) for 24 hr after which they were subject to gamma radiation (either 2 or 10 Gy) and plated at different densities in 6 well plates; the wells depicted were plated at 2000 cells/well. After 10 days, colonies were stained with crystal violet.

In assay [4] the test system is Scc61 cells. In words: Colony formation assay with gamma radiation. Particulars: PES + 2 Gy. The procedure: as §1
The test system of assay [5] is MiaPaCa2 cells. In words: Pulse-chase of newly synthesized proteins. As to conditions: 20 μM, 3 h chase. As to the method:
FIG. 13. Cycloheximide Reduces PES-Induced Cytoplasmic Vacuolization. (A) Representative phase-contrast images of indicated tumor cell lines pretreated with DMSO or 1 μg/ml of cycloheximide (CHX) for 1 h, followed by the addition of 20 μM PES for 23 h. (B) The molecular chaperone HSP70 has been implicated in promoting proper folding of nascent polypeptides. […] Briefly, MiaPaCa2 cells were incubated in methionine/cysteine starvation medium for 30 min before adding [^35S]methionine/cysteine and DMSO or [^35S]methionine/cysteine and 20 μM PES, as indicated, to pulse for 1 h. Following the pulse, cells were immediately chased by complete medium for 0, 0.5, or 3 h, either in the presence of DMSO or 20 μM PES, as indicated. Cells were harvested at indicated time points, lysed in 1% NP40-containing buffer, and fractionated into detergent-soluble and detergent-insoluble preparations.
The cells were seeded at ˜50% confluency in 10 ml of DMEM/10% FBS/1× Pen-Strep using 100 mm dish. Next day, the cells were washed extensively in PBS and starved in “methionine/cysteine-free DMEM” (Invitrogen SKU#21013-024) with 5% dialyzed FBS and 1× Pen/Strep for 30 min. Either [^35S] Methionine/Cysteine (500 μCi) and DMSO or [^35S] Methionine/Cysteine (500 μCi) and 20 μM PES were added to the cells for 1 h. The cells were washed extensively to remove [^35S] […]

Consider `NS(=O)(=O)C#Cc1ccccc1` [PES, 2-Phenylethynesulfonamide], for which the “unstimulated NF-κB activity” value in assay [1] is reported as “inhibited unstimulated NF-κB activity in a dose-dependent manner”. Further, the “NF-κB activation stimulated by TNFα” value in assay [1] (TNFα) is on record as “inhibited NF-κB activation”. In addition, the “combination effect with cisplatin” value in assay [2] is on record as “acts synergistically with cisplatin”. Also, the “colony formation with radiation” value is given as “combine effectively to reduce the capacity to form colonies” in assay [3] and “effectively diminished the capacity of these cells to form colonies” in assay [4]. The “newly-synthesized proteins in the detergent-insoluble fraction” value in assay [5] is recorded as “increase in the newly-synthesized proteins in the detergent-insoluble fraction”.
